Some test systems named below: RXF 393 renal; EKVX NSCLC; A549 NSCLC; NCI-H23 lung; UACC-62 melanoma; NCI-H522 lung; NCI-H460 lung; M14 melanoma; HS 578T breast; SW-620 colon.
Holding throughout (assay): NCI tumour cell line growth inhibition, 48 h

Where “and” joins values, the source holds several entries; their conditions need not be identical. Identical values can stand only once.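 Assay format: 96-well plates, 48-hour exposure. At the GI50, growth is halved. TGI: concentration producing complete growth inhibition.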

For `C=C1C(=O)O[C@H]2[C@H]1CC/C(COC(=O)c1ccc(Br)cc1)=C\CC[C@@]1(C)O[C@@H]21`, the GI50 in the assay on RXF 393 renal was 1.46 µM; in the assay on EKVX NSCLC, 1.76 µM; in the assay on A549 NSCLC it was 1.96 µM; in the assay with NCI-H23 lung, 1.6 µM; in the assay with UACC-62 melanoma, 1.48 µM; in the assay with NCI-H522 lung it was 1.33 µM. In addition, the GI50 with NCI-H460 lung was 1.99 µM; with M14 melanoma it was 1.47 µM; with HS 578T breast, 2.51 µM; in the assay with SW-620 colon, 1.08 µM. The TGI in the assay on RXF 393 renal turned out to be 2.84 µM; in the assay on EKVX NSCLC it was 4.05 µM; in the assay with A549 NSCLC it was 4.56 µM; in the assay on NCI-H23 lung it was 3.41 µM; in the assay with UACC-62 melanoma, 2.94 µM; in the assay on NCI-H522 lung it was 2.8 µM. Besides, the TGI is 4.3 µM in the assay with NCI-H460 lung, 3.2 µM in the assay on M14 melanoma, 7.64 µM with HS 578T breast and 2.87 µM in the assay on SW-620 colon.

For the compound `CCCCCCCC(=O)O[C@H]1[C@H]2[C@@H](CC1(C)C)C(=O)[C@]13O[C@H]1C(=O)[C@]1(CO1)[C@]23C`, the GI50 in the assay on RXF 393 renal was 1.93 µM; in the assay on EKVX NSCLC, 36.9 µM; in the assay on A549 NSCLC, 22.5 µM; in the assay on NCI-H23 lung, 12.5 µM; with UACC-62 melanoma, 6.47 µM; with NCI-H460 lung it was 20 µM. In addition, the GI50 in the assay with SW-620 colon is 1.39 µM. Also, the TGI is 3.97 µM and 5.31 µM in the assay with RXF 393 renal; 62.1 µM and 10 µM with EKVX NSCLC; 38.2 µM and 63.6 µM in the assay on A549 NSCLC; 28.4 µM and 8.51 µM in the assay with NCI-H23 lung; 20.8 µM and 7.29 µM in the assay on UACC-62 melanoma; 2.9 µM and 3.85 µM with NCI-H522 lung. The TGI in the assay with NCI-H460 lung is 42.6 µM and 12.8 µM; with M14 melanoma, 11.3 µM; in the assay on HS 578T breast, greater than 100 µM; in the assay with SW-620 colon, 3.27 µM and 2.74 µM.

`COc1cc(C2CC(c3cc(Cl)c(C)cc3O)=NN2c2ccc(S(N)(=O)=O)cc2)cc(OC)c1OC` (configuration not stated): the GI50 was 2.9 µM in the assay on RXF 393 renal; 3.26 µM in the assay with EKVX NSCLC; 4 µM in the assay with A549 NSCLC; 2.11 µM with NCI-H23 lung; 2.47 µM in the assay on UACC-62 melanoma; 2.45 µM in the assay with NCI-H522 lung. For the same compound, the GI50 was 2.06 µM in the assay with NCI-H460 lung, 2.02 µM in the assay on M14 melanoma, 2.21 µM in the assay with HS 578T breast and 3.35 µM with SW-620 colon. For the same compound, the TGI turned out to be 6.02 µM in the assay with RXF 393 renal; 43.7 µM in the assay on EKVX NSCLC; 15.5 µM in the assay with A549 NSCLC; 5.32 µM in the assay with NCI-H23 lung; 8.5 µM in the assay with UACC-62 melanoma; 6.73 µM in the assay on NCI-H522 lung. Moreover, the TGI was 3.87 µM in the assay on NCI-H460 lung, 4.29 µM with M14 melanoma, 7.02 µM with HS 578T breast and 10.7 µM with SW-620 colon.

As for `C=C(C)[C@@H]1CC[C@@H]2C(=CC[C@]3(C)C([C@H](C)CC/C=C(/C)C(=O)O)CC[C@@]23C)[C@@]1(C)CCC(=O)O` (some centres not stated), the TGI in the assay with RXF 393 renal is 35.1 µM; in the assay on EKVX NSCLC it was greater than 100 µM; with A549 NSCLC, greater than 100 µM; in the assay on NCI-H23 lung, 57.2 µM; with UACC-62 melanoma it was 39.4 µM; with NCI-H522 lung it was 91.6 µM. Further, the TGI with NCI-H460 lung is 40.6 µM; in the assay with M14 melanoma it was greater than 100 µM; in the assay with HS 578T breast it was greater than 100 µM; with SW-620 colon, greater than 100 µM.

For `CCN(CC)CCn1nc2c3c(cccc3c1=O)-c1ccccc1-2`, the GI50 in the assay on RXF 393 renal is 2.05 µM; in the assay with EKVX NSCLC, 2.33 µM; in the assay on A549 NSCLC it was 1.05 µM; in the assay on NCI-H23 lung it was 1.82 µM; in the assay with UACC-62 melanoma it was 1.98 µM; with NCI-H522 lung, 2.21 µM. Further, the GI50 in the assay on NCI-H460 lung was 1.49 µM; with M14 melanoma it was 2.15 µM; in the assay on HS 578T breast it was 11.2 µM; with SW-620 colon, 1.89 µM. The TGI with RXF 393 renal came to 8.09 µM; with EKVX NSCLC it was 38.7 µM; with A549 NSCLC it was 19.8 µM; in the assay on NCI-H23 lung it was 8.98 µM; with UACC-62 melanoma, 7.81 µM; with NCI-H522 lung it was 9.84 µM. Further, the TGI with NCI-H460 lung was greater than 50 µM; with M14 melanoma, 13.1 µM; in the assay with HS 578T breast it was greater than 50 µM; in the assay with SW-620 colon it was greater than 50 µM.

Take `Clc1ccc2c(NCCNc3nc(Cl)nc4ccccc34)ccnc2c1`: the GI50 in the assay with RXF 393 renal was 1.73 µM; in the assay with EKVX NSCLC, 1.79 µM; with A549 NSCLC, 1.4 µM; in the assay on NCI-H23 lung, 1.83 µM; in the assay on UACC-62 melanoma, 1.81 µM; in the assay with NCI-H522 lung it was 1.3 µM. Besides, the GI50 was 0.536 µM in the assay on NCI-H460 lung, 1.84 µM with M14 melanoma, 2.26 µM with HS 578T breast and 0.271 µM in the assay on SW-620 colon. Moreover, the TGI in the assay with RXF 393 renal amounted to 3.37 µM; in the assay on EKVX NSCLC, 3.56 µM; with A549 NSCLC, 3.04 µM; with NCI-H23 lung, 3.7 µM; in the assay on UACC-62 melanoma it was 3.49 µM; in the assay with NCI-H522 lung it was 2.76 µM. Moreover, the TGI was 1.83 µM in the assay on NCI-H460 lung, 3.51 µM in the assay with M14 melanoma, 4.96 µM in the assay on HS 578T breast and 0.636 µM in the assay on SW-620 colon.

For the compound `COC(=O)C1=C(C)NC(C)=C(C(=O)OC)C1c1ccccc1[N+](=O)[O-]`, the GI50 with RXF 393 renal was 36 µM; in the assay on EKVX NSCLC, 64.3 µM; in the assay on A549 NSCLC, greater than 100 µM; in the assay with NCI-H23 lung, greater than 100 µM; in the assay with UACC-62 melanoma, 29.6 µM; in the assay with NCI-H522 lung, greater than 100 µM. The GI50 in the assay on NCI-H460 lung was 97.6 µM; in the assay with M14 melanoma, greater than 100 µM; with HS 578T breast, 32.4 µM; with SW-620 colon it was greater than 100 µM. The TGI in the assay on RXF 393 renal, in the assay on EKVX NSCLC, in the assay on A549 NSCLC, in the assay on NCI-H23 lung, with UACC-62 melanoma and in the assay on NCI-H522 lung was greater than 100 µM throughout. Also, the TGI in the assay with NCI-H460 lung, in the assay on M14 melanoma, in the assay with HS 578T breast and with SW-620 colon was greater than 100 µM each time.

As for `CCOC(=O)CCC(NC(=O)c1ccc(Nc2nc3cc(N)cc(N)c3nc2-c2ccccc2)cc1)C(=O)OCC` (configuration not stated), the GI50 was 43.4 µM with RXF 393 renal; greater than 53.8 µM with EKVX NSCLC; 27.8 µM in the assay on A549 NSCLC; 30.8 µM with NCI-H23 lung; 12.6 µM in the assay on UACC-62 melanoma; 27.9 µM in the assay with NCI-H522 lung. The GI50 with NCI-H460 lung was greater than 29.3 µM; in the assay with M14 melanoma it was 11.9 µM; in the assay with HS 578T breast, 33.3 µM; in the assay with SW-620 colon, 45.6 µM. Also, the TGI in the assay with RXF 393 renal is greater than 92.6 µM; in the assay on EKVX NSCLC, greater than 100 µM; in the assay with A549 NSCLC it was greater than 100 µM; in the assay on NCI-H23 lung, greater than 74.5 µM; with UACC-62 melanoma, greater than 38.2 µM; with NCI-H522 lung, greater than 100 µM. Also, the TGI was greater than 69.3 µM in the assay with NCI-H460 lung, greater than 24.4 µM with M14 melanoma, 75 µM in the assay on HS 578T breast and greater than 100 µM in the assay with SW-620 colon.

The record behind these values is PubChem BioAssay (NCI).
